Here are results for one compound from US12144815B2, “Use of aprepitant for treating Alzheimer's disease” (Hoth Therapeutics, Inc., priority 2021, dated 2024).

The test system of one experiment is APP/PS1 mice. The experiment in a line: Morris Water Maze test of spatial learning and memory. The class given is in vivo. The following applies: 3 weeks oral treatment. As for the experimental part: A Morris Water Maze test was used to evaluate spatial learning and memory after 3 weeks treatment with oral aprepitant or vehicle in APP/PS1 or wild type (WT) mice.
Animal Model. All experiment protocols using animals were performed ethically and in accordance with the guidelines established by the Institutional Animal Care and Use Committee at Washington University. APPswe/PS1DE9 hemizygous mice (Jackson Laboratory, RRID: MMRRC_034829.JAX) (Savonenko et al., 2003) were bred to wild type C3H/B6 mice and aged the APP/PS1^+/− offspring to 2-3.5 months for microdialysis experiments or aged to 9 months for behavioral testing. Males and females were included in each group; aprepitant treated mice n=20 (11 males, 9 females), Vehicle treated mice […] for microdialysis experiments. […]
Morris water maze (MWM) test. […] The PVC escape platform measured 11.5 cm in diameter. A digital video camera connected to a PC computer and the computer software program ANY-maze (Stoelting Co., Wood Dale, IL) tracked the swimming pathway of the mouse to the escape platform and quantified path length, latency to find escape platform, and swimming speeds. […]

For experiment [1], the system named is brain interstitial fluid (ISF) Aβ. The experiment in a line: In vivo microdialysis of brain interstitial fluid (ISF) Aβ with Aβ sandwich ELISA. The note with it: APP/PS1+/− mice, 40 mg/kg oral gavage. As for the experimental part: In vivo microdialysis was utilized to measure the basal concentration of ISF Aβ in each mouse, followed by administration via oral gavage of 40 mg/kg dose of aprepitant or vehicle (corn oil) and continued measurement of Aβ over 24 hours.
Three-four month old APP/PS1^+/− mice were implanted with unilateral guide cannula above the hippocampus followed by insertion of microdialysis probes (see, for example, In Vivo AβMicrodialysis of Example 7). Each animal recovered for 3 days between guide cannula implantation and start of microdialysis. Littermate females and males were separated randomly into each treatment group. Throughout each microdialysis study, mice were housed in special RaTurn caging systems to provide freedom of movement and ad lib food and water while the microdialysis equipment was attached. […]
Following drug administration, ISF was measured every 60 minutes for 24 hours. […] ISF APβ was immediately measured at the end of each study by Aβ sandwich ELISA. […]
In Vivo Aβ Microdialysis. […] Samples were collected every 60 or 90 minutes into a refrigerated fraction collector (Univentor Limited) in polypropylene tubes and assessed for […] by sandwich ELISA. […]
Aβ Sandwich ELISA. ISF Aβx-40 levels were measured using sandwich ELISAs as described (Hettinger et al., 2018). […]
A general note: In an ELISA, binding on a coated surface is turned into a signal by an enzyme label.

Regarding `C[C@H](O[C@@H]1OCCN(Cc2n[nH]c(=O)[nH]2)[C@H]1c1ccc(F)cc1)c1cc(C(F)(F)F)cc(C(F)(F)F)c1` [aprepitant], in the experiment with APP/PS1 mice (compared to vehicle-treated APP/PS1 mice, preliminary data), the “spatial memory for the platform location (time spent in the target quadrant, probe trial)” value is “trend for improved memory”. Further, the “spatial learning (path length, learning trials)” value in the experiment on APP/PS1 mice (n=4 vs vehicle n=3, preliminary data, trend) is given as “improved spatial learning”. Besides, the “average ISF Aβ levels post gavage compared to vehicle treated mice” value in experiment [1] (Bonferroni post hoc, p=0.0002) was “significantly lower”. The “ISF Aβ levels, change from baseline (within group)” value in experiment [1] (hippocampal ISF measured over 24 hours, p <0.0001, vehicle (corn oil) mice did not decrease (p=0.4003)) is recorded as “significantly decreased from their baseline”.
